# What was measured:
# Format in all cases: cell-based
# LNCaP cells [1] = assay: Antiproliferative activity on LNCaP in medium without steroids (WST-1); conditions: 144 h, 1 nM to 100 μM
# Description: The anti-proliferative activity of the compounds of the present invention is determined on LNCaP in medium without steroids.
# The maintenance of the LNCaP line is carried out under the usual conditions in RPMI, 10% of foetal calf serum, 2 mM of glutamine, 100 U/ml of penicillin, 0.1 mg/ml of streptomycin and 0.01M HEPES, 1 mM sodium pyruvate, 40% of D-glucose.
# For the study under conditions without steroids, 24 hours before the seeding the culture medium of the cells is eliminated. The cells are washed with PBS, then incubated in the presence of RPMI medium without phenol red, 10% of foetal calf serum without steroids (treatment with carbon), 2 mM of glutamine, 100 U/ml of penicillin, 0.1 mg/ml of streptomycin and 0.01M HEPES, 1 mM of sodium pyruvate, 40% of D-glucose. • Seeding the plates:
# The LNCaP line is seeded at 20,000 cells/well in 90 μl of RPMI medium with 10% foetal calf serum without steroids in 96-well plates coated with poly-D-lysine (Biocoat, Costar). • Treatment of the cells: 24 h after seeding, the cells are treated with 10 μl/well of compound diluted in the culture medium. Experiments showing the dose-effect of the compound are carried out on a scale of 1 nM to 100 μM. The concentrations used are the following: 1 nM/10/30/100/300/1000/3000/10,000/100,000 nM. Testosterone (SIGMA T1500) is used as a reference and tested at the same concentrations. The cells are incubated for 144 h at 37° C., 5% CO2. • Reading: On D6, 10 μL of cell proliferation reagent WST-1 (Roche ref 1644807) is added to each well. After incubation for 2 to 4 hours at 37° C., 5% CO2, the absorbance at 450 nm is measured by spectrophotometry (Envision, Perkin Elmer). • Results: The experiments are carried out in duplicate and the best compounds are tested twice. […] 3. Antiproliferative Activity on DU-145 in Complete Medium: […]
# LNCaP cells [2] = assay: Anti-proliferative activity on LNCaP in complete medium (WST-1); conditions: Homo sapiens, 144 h, 144 h incubation, read-out: IC50 on the LNCaP cells in culture (concentration inhibiting cell proliferation by 50%)
# Description: The anti-proliferative activity of the compounds of the present invention is determined on LNCaP in complete medium by applying the following experimental procedure:
# The LNCaP cell type (ATCC, 1740) originating from a prostate carcinoma expressing the androgen receptor, this line is hormone-dependent.
# Maintenance of the LNCaP line is carried out in complete culture medium: RPMI, 10% of foetal calf serum, 2 mM glutamine, 100 U/ml penicillin, 0.1 mg/ml of streptomycin and 0.01M HEPES, 1 mM sodium pyruvate, 40% of D-glucose. • Seeding the plates:
# The LNCaP line is seeded at 20,000 cells/well in 90 μl of complete medium in 96-well plates coated with poly-D-lysine (Biocoat, Costar). • Treatment of the cells: 24 h after the seeding, the cells are treated with 10 μl/well of compound diluted in the culture medium. Experiments of the effect of doses of the compound are carried out on a scale of 1 nM to 100 µM. The concentrations used are the following: 1 nM/10/30/100/300/1000/3000/10,000/100,000 nM. Testosterone (SIGMA T1500) is used as a reference and tested at the same concentrations. The cells are incubated for 144 h at 37° C., 5% CO2. • Reading: On D6, 10 μL of the “WST-1 cell proliferation” reagent (Roche ref 1644807) is added to each well. After incubation for 2 hours at 37° C., 5% CO2, the absorbance at 450 nm is measured by spectrophotometry (Envision, Perkin Elmer). • Results: The experiments are carried out in duplicate and the best compounds are tested twice. […] 2. Antiproliferative Activity on LNCaP in Medium without Steroids: […]
# DU145 cells = assay: Antiproliferative activity on DU-145 in complete medium (WST-1); conditions: Homo sapiens, 144 h incubation, read-out: IC50 on the DU145 cells in culture (concentration inhibiting cell proliferation by 50%)
# Description: The anti-proliferative activity of the compounds of the present invention is determined on DU-145 in complete medium.
# Maintenance of the DU-145 line is carried out in DMEM, 10% of foetal calf serum, 2 mM of glutamine, 100 U/ml of penicillin, 0.1 mg/ml of streptomycin. • Seeding the plates: • The DU145 line is seeded at 400 or 800 cells/well in 90 μl of DMEM complete medium in 96-well plates (TPP). • Treatment of the cells: 24 h after the seeding, the cells are treated with 10 μl/well of compound diluted in the culture medium. Experiments showing the dose-effect of the compound are carried out on a scale of 1 nM to 100 μM. The concentrations used are the following: 1 nM/10/30/100/300/1000/3000/10,000/100,000 nM. The cells are incubated for 144 h at 37° C., 5% CO2. • Reading: On D6, 10 μL, of cell proliferation reagent WST-1 (Roche ref 1644807) is added to each well. After incubation for 2 to 4 hours at 37° C., 5% CO2, the absorbance at 450 nm is measured by spectrophotometry (Envision, Perkin Elmer). • Results: The experiments are carried out in duplicate and the best compounds are tested twice. […] 4. Measurement of the Disappearance of the Androgen Receptor
smiles,measurement,setting,value
"CC1(C)NC(=O)N(c2ccc([N+](=O)[O-])c(C(F)(F)F)c2)C1=O [nilutamide, reference compound]",effect on the cell proliferation of LNCaP cultured in medium without steroids (FIG. 1),LNCaP cells [1],biphasic profile with an agonist activity at low concentration followed by an inhibitory activity at high concentration
"Cc1cc(N2C(=O)N(CCCCCCCCC[S+]([O-])CCCC(F)(F)C(F)(F)F)C(C)(C)C2=O)ccc1NS(N)(=O)=O (stereo not drawn) [Example 31, N-[4-(4,4-dimethyl-2,5-dioxo-3-{9-[(4,4,5,5,5-pentafluoropentyl)sulphinyl]nonyl}imidazolidin-1-yl)-2-methylphenyl]sulphamide]",IC50,LNCaP cells [2],< 2 µM
same,IC50,DU145 cells,> 10 µM
"Cc1cc(N2C(=O)N(CCCCCCCCC[S+]([O-])CCCC(F)(F)C(F)(F)F)C(C)(C)C2=O)ccc1[N+](=O)[O-] (stereo not drawn) [Example 24, 5,5-dimethyl-3-(3-methyl-4-nitrophenyl)-1-{9-[(4,4,5,5,5-pentafluoropentyl)sulphinyl]nonyl}imidazolidine-2,4-dione]",IC50,LNCaP cells [2],< 2 µM
same,IC50,DU145 cells,> 10 µM
"CC1(C)C(=O)N(c2ccc([N+](=O)[O-])c(C(F)(F)F)c2)C(=O)N1CCCCCSCCCC(F)(F)C(F)(F)F [Example 4, 5,5-dimethyl-3-[4-nitro-3-(trifluoromethyl)phenyl]-1-{5-[(4,4,5,5,5-pentafluoropentyl)thio]pentyl}imidazolidine-2,4-dione]",IC50,LNCaP cells [2],< 2 µM
same,IC50,DU145 cells,> 10 µM
"CC1(C)C(=O)N(c2ccc(C(N)=O)c(C(F)(F)F)c2)C(=O)N1CCCCCCCCC[S+]([O-])CCCC(F)(F)C(F)(F)F (stereo not drawn) [Example 22, 4-(4,4-dimethyl-2,5-dioxo-3-{9-[(4,4,5,5,5-pentafluoropentyl)sulphinyl]nonyl}imidazolidin-1-yl)-2-(trifluoromethyl)benzamide]",IC50,LNCaP cells [2],< 2 µM
same,IC50,DU145 cells,> 10 µM
"CC1(C)C(=O)N(c2ccc([N+](=O)[O-])c(C(F)(F)F)c2)C(=O)N1CCCCCCCCC[S+]([O-])CCC(F)(F)C(F)(F)C(F)(F)C(F)(F)F (stereo not drawn) [Example 15, 5,5-dimethyl-3-[4-nitro-3-(trifluoromethyl)phenyl]-1-{9-[(3,3,4,4,5,5,6,6,6-nonafluorohexyl)sulphinyl]nonyl}imidazolidine-2,4-dione]",IC50,LNCaP cells [2],< 2 µM
same,IC50,DU145 cells,> 10 µM
"Cc1cc(N2C(=O)N(CCCCCCCCCS(=O)(=O)CCCC(F)(F)C(F)(F)F)C(C)(C)C2=O)ccc1NS(N)(=O)=O [Example 32, N-[4-(4,4-dimethyl-2,5-dioxo-3-{9-[(4,4,5,5,5-pentafluoropentyl)sulphonyl]nonyl}imidazolidin-1-yl)-2-methylphenyl]sulphamide]",IC50,LNCaP cells [2],< 2 µM
same,IC50,DU145 cells,> 10 µM
"Cc1cc(N2C(=O)N(CCCCCCCCCSCCCC(F)(F)C(F)(F)F)C(C)(C)C2=O)ccc1NS(N)(=O)=O [Example 30, N-[4-(4,4-dimethyl-2,5-dioxo-3-{9-[(4,4,5,5,5-pentafluoropentyl)sulphanyl]nonyl}imidazolidin-1-yl)-2-methylphenyl]sulphamide]",IC50,LNCaP cells [2],< 2 µM
same,IC50,DU145 cells,> 10 µM
"CN(C)CC(=O)Nc1ccc(N2C(=O)N(CCCCCCCCCSCCCC(F)(F)C(F)(F)F)C(C)(C)C2=O)cc1C(F)(F)F [Example 42, N-[4-(4,4-dimethyl-2,5-dioxo-3-{9-[(4,4,5,5,5-pentafluoropentyl)sulphanyl]nonyl}imidazolidin-1-yl)-2-(trifluoromethyl)phenyl]-N^2,N^2-dimethylglycinamide]",IC50,LNCaP cells [2],< 2 µM
same,IC50,DU145 cells,> 10 µM
"CC1(C)C(=O)N(c2ccc([N+](=O)[O-])c(C(F)(F)F)c2)C(=O)N1CCCCC[S+]([O-])CCCC(F)(F)C(F)(F)F (stereo not drawn) [Example 5, 5,5-dimethyl-3-[4-nitro-3-(trifluoromethyl)phenyl]-1-{5-[(4,4,5,5,5-pentafluoropentyl)sulphinyl]pentyl}imidazolidine-2,4-dione]",IC50,LNCaP cells [2],< 2 µM
same,IC50,DU145 cells,> 10 µM
"O=C1N(c2ccc([N+](=O)[O-])c(C(F)(F)F)c2)C(=O)C2(CCC2)N1CCCCCCCCC[S+]([O-])CCCC(F)(F)C(F)(F)F (stereo not drawn) [Example 34, 7-[4-nitro-3-(trifluoromethyl)phenyl]-5-{9-[(4,4,5,5,5-pentafluoropentyl)sulphinyl]nonyl}-5,7-diazaspiro[3.4]octane-6,8-dione]",IC50,LNCaP cells [2],< 2 µM
same,IC50,DU145 cells,> 10 µM
